Results from patent publication US6121252A, “Phosphinic acid derivatives” (priority 1998, dated 2000).

Tests used:
[1] = system: Dunning G tumors; assay: In vivo Dunning G tumor model, subcutaneous Compound 3; design: species or system male Copenhagen syngenic rats
Experimental: Male Copenhagen syngenic rats, age 8 to 10 weeks, were injected in both flanks with 10^7 Dunning G cells. […] Controls received 50 mM HEPES s.c. daily. Tumors were measured twice a week.
(§1) Response to treatment was monitored in two ways. First, mean tumor volume for each group was presented as tumor:control ratio (% T/C) and these values were compared at one point in time. Second, tumor volume versus time was monitored.

[2] = system: dopaminergic neurons; assay: Parkinson's Disease model: MPTP lesioned mice; type: in vivo, CD1 mice; details: 10 mg/kg, p<0.001
Experimental: To examine the effect of NAALADase inhibitors on Parkinson's Disease in vivo, MPTP lesioned mice were treated with 2-(phosphonomethyl)pentanedioicacid or a vehicle.
MPTP lesioning of dopaminergic neurons in mice was used as an animal model of Parkinson's Disease, as described by Steiner, Proc. Natl. Acad. Sci., Vol. 94, pp. 2019-2024 (March 1997). In brief, four week old male CD1 white mice were dosed IP with 30 mg/kg of MPTP for 5 days. […] At 18 days following MPTP treatment, the mice were sacrificed and their brains were removed and sectioned. Immunostaining was performed on saggital and coronal brain sections using anti-tyrosine hydroxylase (TH) antibodies to quantitate survival and recovery of dopaminergic neurons.

[3] = system: LNCaP tumors; assay: In vivo LNCaP tumor model, intratumoral Compound 3; design: species or system ncr nude male mice
Experimental: Ncr nude male mice, age 5 to 6 weeks, were injected in the right flank with 10^7 LNCaP cells in Matrigel™ (0.1 ml total injection volume). When the tumors reached a predetermined size (50 to 60 mm^3), mice were randomly placed into treatment groups of 6 to 8 mice each. […] Controls received 50 μl of 50 mM HEPES intratumorally daily. Tumors were measured twice a week.
as §1

[4] = system: sciatic nerve; assay: Myelin formation following sciatic nerve cryolesion; type: in vivo, mouse
Experimental: Cryolesion of the mouse sciatic nerve was performed according to Koenig et al. , Science, Vol. 268, pp. 1500-1503 (June 1995). In brief, each mouse was anesthetized and its sciatic nerve was exposed in the upper thigh and cryolesioned using a copper cryode (diameter=0.5 mm) that was dipped in liquid nitrogen and repeatedly applied to the upper part of the nerve. The extent of the lesion was approximately 1 mm.
Both right and left sciatic nerves of each mouse were lesioned; right-side nerves were treated with silicone implant strips containing vehicle alone while left-side nerves were treated with silicone implants containing 2-(phosphonomethyl)pentanedioic acid. Fifteen days after surgery, the mice were sacrificed and their sciatic nerve segments were collected and processed for light microscopy and TEM analysis. Randomly chosen fields 2-3 mm distal to the lesion were qualitatively analyzed by light microscopy using 1-micrometer-thick toluidine blue stained cross sections and photographic images were captured.

[5] = system: spinal cord organotypic cultures; assay: ALS model: ChAT activity of spinal cord organotypic cultures with THA; type: cell-based, rat
Experimental: Organotypic cultures were prepared from lumbar spinal cord of 8 day old rats, as described by Rothstein et al., J. Neurochem., Vol. 65, No. 2 (1995), and Rothstein et al., Proc. Natl. Acad. Sci. USA, Vol. 90, pp. 6591-6595 (July 1993). In brief, lumbar spinal cords were removed and sliced into […]-thick-dorsal-ventral sections, and five slices were placed on Millipore CM semipermeable 30-mm-diameter membrane inserts. The inserts were placed on 1 ml of culture medium in 35-mm-diameter culture wells. Culture medium consisted of 50% minimal essential medium and phosphate-free HEPES (25 mM), 25% heat-inactivated horse serum, and 25 Hanks' balanced salt solution (GIBCO) supplemented with D-glucose (25.6 mg/ml) and glutamine (2 mM), at a final pH of 7.2. Antibiotic and antifungal agents were not used. Cultures were incubated at 37° C. in 5% CO2 containing humidified environment (Forma Scientific). Culture medium, along with any added pharmacological agents, was changed twice weekly.
Drugs were incubated for an additional 13 to 20 days with the 100 μM THA. At the end of this period, cultures were collected assayed for ChAT activity as described below.
To determine choline acetyltransferase (CHAT) activity, the spinal cord tissues in each dish (five slices) were pooled and frozen (-75° C.) until assay. CHAT activity was measured radiometrically by described methods using [^3 H]acetyl-CoA (Amersham; Fonnum, 1975). Protein content of tissue homogenate was determined by a Coomassi Protein Assay kit (Pierce, Rockford, Ill.).

O=C(O)CCC(CP(=O)(O)O)C(=O)O (stereo not drawn) [Compound 3, 2-(phosphonomethyl)pentanedioic acid]
effect on tumor growth (in words) ([1]; 1 mg/kg s.c.): no effect on tumor growth | effect on tumor growth (in words) ([1]; 3 mg/kg s.c.): no effect on tumor growth | tumor size, % of controls ([1]; 10 mg/kg s.c., p=0.03): 38 % of controls | tumor size, % of controls ([1]; 30 mg/kg s.c.): 22 % of controls | recovery of TH-stained dopaminergic neurons (in words) [2]: significant recovery of TH-stained dopaminergic neurons | Optimal % T/C ([3]; 0.025 μg/day intratumoral): 42 % T/C | Regressions ([3]; 0.025 μg/day intratumoral): 1/7 | Tumor volume after 42 days of treatment ([3]; 0.025 μg/day, control 807.3±197.3): 465.7±176 mm^3 | Optimal % T/C ([3]; 0.25 μg/day intratumoral): 51 % T/C | Regressions ([3]; 0.25 μg/day intratumoral): 1/7 | Optimal % T/C ([3]; 2.5 μg/day intratumoral): 45 % T/C | Regressions ([3]; 2.5 μg/day intratumoral): 0/7 | Optimal % T/C ([3]; 25.0 μg/day intratumoral): 76 % T/C | Regressions ([3]; 25.0 μg/day intratumoral): 0/7 | tumor growth (in words) ([3]; 0.025, 0.25 and 2.5 μg/day intratumoral): slowed tumor growth substantially | # of myelinated lamellae ([4]; ave. + SEM, vehicle 13.77 ± 0.09, p < 0.005): 16.53 ± 0.65 | % increase of myelinated lamellae over vehicle ([4]; p < 0.005): 20% | ratio of # of myelinated axons (drug/vehicle) ([4]; silicone implant, approx. 2.5 μg/day, 15 days): 1.5 | increase in number of myelinated axons ([4]; vs vehicle, 3 mm distal to cryolesion): 1.5 fold | increase in myelin thickness ([4]; vs vehicle, 3 mm distal to cryolesion, p<0.005): 20% | protection against THA-induced toxicity (in words) ([5]; 1 nM to 10 μM, THA 100 μM, 14 days): dose-dependent protection against THA-induced toxicity with maximal effects at 1 μM | protection from THA toxicity (in words) ([5]; 100 nM - 10 μM with THA): significantly protected the cultures from THA toxicity | ChAT Activity ([5]; 2-(phosphonomethyl)pentanedioic acid alone): 108 ± 18.4 % of Control | ChAT Activity ([5]; with THA): 121 ± 18.8 % of Control
